Experimental data reported in patent US20240116845A1, “INDENE COMPOUNDS, PHARMACEUTICAL COMPOSITIONS THEREOF, AND THEIR THERAPEUTIC APPLICATIONS” (NucMito Pharmaceuticals Co., Ltd., priority 2021, published 2024).

Tests used:
Assay type in all cases: cell-based
[1] = test system: alpha-smooth muscle actin (α-SMA); test: Inhibition of TGF-β induced expression of alpha-smooth muscle actin in CFSC cells (western blot); conditions: compound at 10 μM, TGF-β (10 ng/mL), 24 hours
Summary of the method: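 Rat CCl4-treated hepatic stellate (CFSC) cells in serum-free DMEM were given compound at 10 μM plus TGF-β 10 ng/mL for 24 h at 37 °C. α-SMA measured by western blot with β-actin, bands quantified densitometrically. Percent inhibition is the decrease in band intensity versus TGF-β alone.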

[2] = test system: B16F10 (malignant melanoma); test: Antiproliferative activity, CCK-8 cell viability; conditions: Mus musculus, B16-F10, 72 h, read-out: Inhibition of Cancerous Cells, B16F10; for inhibition at 3.3 µM: compound concentration of 3.3 μM; for inhibition at 10 µM: compound concentration of 10 μM; for inhibition at 30 µM: compound concentration of 30 μM
Summary of the method: (§1)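 Cells in DMEM with 10% FBS were treated with compound at 3.3, 10 or 30 μM for 72 h at 37°C. Viability was read by CCK-8 absorbance at 450 nm and expressed relative to DMSO-treated cells. Growth inhibition was binned as ≥50%, 30–50% or <30%.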

SW480 (colon cancer) = test: Antiproliferative activity, CCK-8 cell viability; conditions: Homo sapiens, 72 h, read-out: Inhibition of Cancerous Cells, SW480; for inhibition at 3.3 µM: compound concentration of 3.3 μM; for inhibition at 10 µM: compound concentration of 10 μM; for inhibition at 30 µM: compound concentration of 30 μM
Summary of the method: as §1

HepG2 (liver cancer) = test: Antiproliferative activity, CCK-8 cell viability; conditions: Homo sapiens, 72 h, read-out: Inhibition of Cancerous Cells, HepG2; for inhibition at 3.3 µM: compound concentration of 3.3 μM; for inhibition at 10 µM: compound concentration of 10 μM; for inhibition at 30 µM: compound concentration of 30 μM
Summary of the method: as §1

[3] = test system: A431 (epidermoid carcinoma); test: Antiproliferative activity, CCK-8 cell viability; conditions: Homo sapiens, A-431, 72 h, read-out: Inhibition of Cancerous Cells, A431; for inhibition at 3.3 µM: compound concentration of 3.3 μM; for inhibition at 10 µM: compound concentration of 10 μM; for inhibition at 30 µM: compound concentration of 30 μM
Summary of the method: as §1

[4] = test system: MDA-MB-231 (breast cancer); test: Antiproliferative activity, CCK-8 cell viability; conditions: Homo sapiens, 72 h, read-out: Inhibition of Cancerous Cells, MDA-MB-231; for inhibition at 3.3 µM: compound concentration of 3.3 μM; for inhibition at 10 µM: compound concentration of 10 μM; for inhibition at 30 µM: compound concentration of 30 μM
Summary of the method: as §1

HeLa (cervical cancer) = test: Antiproliferative activity, CCK-8 cell viability; conditions: Homo sapiens, 72 h, read-out: Inhibition of Cancerous Cells, HELA; for inhibition at 3.3 µM: compound concentration of 3.3 μM; for inhibition at 10 µM: compound concentration of 10 μM; for inhibition at 30 µM: compound concentration of 30 μM
[5] = test system: A549 (lung adenocarcinoma); test: Antiproliferative activity, CCK-8 cell viability; conditions: Homo sapiens, 72 h, read-out: Inhibition of Cancerous Cells, A549; for inhibition at 3.3 µM: compound concentration of 3.3 μM; for inhibition at 10 µM: compound concentration of 10 μM; for inhibition at 30 µM: compound concentration of 30 μM

| Compound | inhibition at 10 µM [1] | inhibition at 3.3 µM [2] | inhibition at 10 µM [2] | inhibition at 30 µM [2] | inhibition at 3.3 µM (SW480 (colon cancer)) | inhibition at 10 µM (SW480 (colon cancer)) | inhibition at 30 µM (SW480 (colon cancer)) | inhibition at 3.3 µM (HepG2 (liver cancer)) | inhibition at 10 µM (HepG2 (liver cancer)) | inhibition at 30 µM (HepG2 (liver cancer)) | inhibition at 3.3 µM [3] | inhibition at 10 µM [3] | inhibition at 30 µM [3] | inhibition at 3.3 µM [4] | inhibition at 10 µM [4] | inhibition at 30 µM [4] | inhibition at 3.3 µM (HeLa (cervical cancer)) | inhibition at 10 µM (HeLa (cervical cancer)) | inhibition at 30 µM (HeLa (cervical cancer)) | inhibition at 3.3 µM [5] | other results |
| --- | --- | --- | --- | --- | --- | --- | --- | --- | --- | --- | --- | --- | --- | --- | --- | --- | --- | --- | --- | --- | --- |
| CC1=C(CC(=O)O)c2cc(F)ccc2/C1=C\c1ccc(Oc2ccc(F)c(F)c2)cc1 [Compound D5, 2-[(1Z)-5-Fluoro-2-methyl-1-({4-[3,4-difluorophenoxy]phenyl}methylidene)-1H-inden-3-yl]acetic acid] | ≥ 80% | ≥ 50% | ≥ 50% | ≥ 50% | ≥ 50% | ≥ 50% | ≥ 50% | ≥ 50% | ≥ 50% | ≥ 50% | < 30% | ≥ 50% | ≥ 50% | ≥ 50% | ≥ 50% | ≥ 50% | 30 to 50% | ≥ 50% | ≥ 50% | 30 to 50% | inhibition at 10 µM [5]: ≥ 50%; inhibition at 30 µM [5]: ≥ 50% |
| CC1=C(CC(=O)O)c2c(F)cc(F)cc2/C1=C\c1ccc(Oc2ccc(F)cc2)cc1 [Compound D16, 2-[(1Z)-4,6-Difluoro-2-methyl-1-({4-[4-fluorophenoxy]phenyl}methylidene)-1H-inden-3-yl]acetic acid] | ≥ 80% | < 30% | 30 to 50% | ≥ 50% | < 30% | 30 to 50% | ≥ 50% | 30 to 50% | 30 to 50% | ≥ 50% | < 30% | 30 to 50% | ≥ 50% | ≥ 50% | ≥ 50% | ≥ 50% | < 30% | 30 to 50% | ≥ 50% | < 30% | inhibition at 10 µM [5]: 30 to 50%; inhibition at 30 µM [5]: 30 to 50% |
| CC1=C(CC(=O)O)c2cc(F)ccc2/C1=C\c1ccc(CN(Cc2ccccc2)c2ccccc2)cc1 [Compound A10, 2-[(1Z)-1-[(4-{[Benzyl(phenyl)amino]methyl}phenyl)methylidene]-5-fluoro-2-methyl-1H-inden-3-yl]acetic acid] | ≥ 80% | < 30% | ≥ 50% | ≥ 50% | ≥ 50% | ≥ 50% | ≥ 50% | ≥ 50% | ≥ 50% | ≥ 50% | ≥ 50% | ≥ 50% | ≥ 50% | ≥ 50% | ≥ 50% | ≥ 50% | ≥ 50% | ≥ 50% | ≥ 50% | 30 to 50% | inhibition at 10 µM [5]: ≥ 50%; inhibition at 30 µM [5]: ≥ 50% |
| COc1ccc2c(c1)/C(=C\c1ccc(COc3ccccc3)cc1)C(C)=C2CC(=O)O [Compound A12, (Z)-2-(6-Methoxy-2-methyl-1-(4-(phenoxymethyl)benzylidene)-1H-inden-3-yl)acetic acid] | ≥ 80% | ≥ 50% | ≥ 50% | ≥ 50% | ≥ 50% | ≥ 50% | ≥ 50% | 30 to 50% | 30 to 50% | ≥ 50% | < 30% | < 30% | ≥ 50% | < 30% | 30 to 50% | ≥ 50% | 30 to 50% | ≥ 50% | ≥ 50% | 30 to 50% | inhibition at 10 µM [5]: ≥ 50%; inhibition at 30 µM [5]: ≥ 50% |
| CC1=C(CC(=O)O)c2cc(F)ccc2/C1=C\c1cccc(COc2ccc(C(C)(C)C)cc2)c1 [Compound A22, 2-[(1Z)-1-({3-[(4-Tert-butylphenoxy)methyl]phenyl}methylidene)-5-fluoro-2-methyl-1H-inden-3-yl]acetic acid] | ≥ 80% | ≥ 50% | ≥ 50% | ≥ 50% | 30 to 50% | ≥ 50% | ≥ 50% | 30 to 50% | ≥ 50% | ≥ 50% | ≥ 50% | ≥ 50% | ≥ 50% | ≥ 50% | ≥ 50% | ≥ 50% | < 30% | < 30% | ≥ 50% | < 30% | inhibition at 10 µM [5]: 30 to 50%; inhibition at 30 µM [5]: ≥ 50% |
| COc1cccc2c1C(CC(=O)O)=C(C)/C2=C/c1ccc(COc2ccccc2)cc1 [Compound A11] | < 30% | ≥ 50% | ≥ 50% | ≥ 50% | ≥ 50% | ≥ 50% | ≥ 50% | 30 to 50% | ≥ 50% | ≥ 50% | ≥ 50% | ≥ 50% | ≥ 50% | < 30% | 30 to 50% | ≥ 50% | < 30% | < 30% | < 30% | 30 to 50% | inhibition at 10 µM [5]: 30 to 50%; inhibition at 30 µM [5]: 30 to 50% |
| CC1=C(CC(=O)NO)c2cc(F)ccc2/C1=C\c1ccc(C(C)(C)C)cc1 [Compound D42, (Z)-2-(1-(4-(Tert-butyl)benzylidene)-5-fluoro-2-methyl-1H-inden-3-yl)-N-hydroxyacetamide] | 50 to 80% | ≥ 50% | ≥ 50% | ≥ 50% | ≥ 50% | ≥ 50% | ≥ 50% | < 30% | 30 to 50% | ≥ 50% | ≥ 50% | ≥ 50% | ≥ 50% | ≥ 50% | ≥ 50% | ≥ 50% | 30 to 50% | ≥ 50% | ≥ 50% | ≥ 50% | inhibition at 10 µM [5]: ≥ 50%; inhibition at 30 µM [5]: ≥ 50% |
| CC1=C(CC(=O)O)c2cc(F)ccc2/C1=C\c1cccc(COc2ccc(C(F)(F)F)cc2)c1 [Compound A21, 2-[(1Z)-5-Fluoro-2-methyl-1-[(3-{[4-(trifluoromethyl)phenoxy]methyl}phenyl)-methylidene]-1H-inden-3-yl]acetic acid] | < 30% | ≥ 50% | ≥ 50% | ≥ 50% | ≥ 50% | ≥ 50% | ≥ 50% | 30 to 50% | 30 to 50% | ≥ 50% | 30 to 50% | ≥ 50% | ≥ 50% | ≥ 50% | ≥ 50% | ≥ 50% | 30 to 50% | 30 to 50% | ≥ 50% | 30 to 50% | inhibition at 10 µM [5]: 30 to 50%; inhibition at 30 µM [5]: ≥ 50% |
